Data from patent US10287301B2 (Achillion Pharmaceuticals, Inc., priority 2015, dated 2019).

molecular target: Human Factor D (Homo sapiens (Human), UniProt P00746); assay: Human Factor D Assay; assay type: biochemical; conditions: not given
Method in brief: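 Thioesterase activity monitored with Z-L-Lys-SBzl plus Ellman's reagent (DTNB), each 100 μM final, after 5 min room-temperature compound preincubation of 80 nM human serum Factor D in pH 7.5 Tris (50 mM)/1M NaCl.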

Human Factor D, sequence (P00746 26-253): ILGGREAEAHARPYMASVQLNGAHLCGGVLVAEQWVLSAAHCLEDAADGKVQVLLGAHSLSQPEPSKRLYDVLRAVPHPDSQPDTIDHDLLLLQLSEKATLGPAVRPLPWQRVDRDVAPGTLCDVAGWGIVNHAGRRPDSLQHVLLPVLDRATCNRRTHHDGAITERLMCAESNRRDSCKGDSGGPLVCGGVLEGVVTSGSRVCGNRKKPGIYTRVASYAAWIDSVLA

| Compound | IC50 [nM] |
| --- | --- |
| Cc1cccc(NC(=O)[C@@H]2[C@H]3CC[C@H](C3)N2C(=O)Cn2cc(C(N)=O)c3cc(-c4ccc5cccnc5c4)ccc32)n1 [Compound 499, 1-(2-((1R,3S,4S)-3-(6-Methylpyridin-2-ylcarbamoyl)-2-azabicyclo[2.2.1]heptan-2-yl)-2-oxoethyl)-5-(quinolin-7-yl)-1H-indole-3-carboxamide] | 1000 to 10000 |
| CC(=O)c1cn(CC(=O)N2C[C@H](F)C[C@H]2C(=O)Nc2cc(O)ccn2)c2ccc(-c3ccnnc3)cc12 [Compound 177, (2S,4R)-1-(2-(3-acetyl-5-(pyridazin-4-yl)-1H-indol-1-yl)acetyl)-4-fluoro-N-(4-hydroxypyridin-2-yl)pyrrolidine-2-carboxamide] | 1000 to 10000 |
| NC(=O)c1nn(CC(=O)N2C[C@H](F)C[C@H]2C(=O)NCc2ccccn2)c2ccc(-c3ccnnc3)cc12 [Compound 139, 1-(2-((2S,4R)-4-fluoro-2-(pyridin-2-ylmethylcarbamoyl)pyrrolidin-1-yl)-2-oxoethyl)-5-(pyridazin-4-yl)-1H-indazole-3-carboxamide] | 1000 to 10000 |

same assay, conditions: Human Factor D 80 nM, substrate Z-L-Lys-SBzl; read-out: IC50

| Compound | IC50 [nM] |
| --- | --- |
| COc1cc(C)cc2c1OCCC2NC(=O)[C@@H]1C[C@@H](F)CN1C(=O)Cn1cc(C(C)=O)c2cc(-c3ccnnc3)ccc21 (stereo partly drawn) [Compound 123, (2S,4R)-1-(2-(3-acetyl-5-(pyridazin-4-yl)-1H-indol-1-yl)acetyl)-4-fluoro-N-(8-methoxy-6-methylchroman-4-yl)pyrrolidine-2-carboxamide] | > 10000 |
| NC(=O)c1nn(CC(=O)N2C[C@H](F)C[C@H]2C(=O)N[C@@H]2CCC[C@H]2O)c2ccc(-c3ccnnc3)cc12 [Compound 145, 1-(2-((2S,4R)-4-fluoro-2-((1R,2R)-2-hydroxycyclopentylcarbamoyl)pyrrolidin-1-yl)-2-oxoethyl)-5-(pyridazin-4-yl)-1H-indazole-3-carboxamide] | > 10000 |
| CC(=O)c1cn(CC(=O)N2C[C@H](F)C[C@H]2C(=O)Nc2cccc(-c3ccccc3Cl)c2F)c2ccc(N3CCN(c4ncccn4)CC3)cc12 [Compound 31, (2S,4R)-1-(2-(3-acetyl-5-(4-(pyrimidin-2-yl)piperazin-1-yl)-1H-indol-1-yl)acetyl)-N-(2′-chloro-2-fluorobiphenyl-3-yl)-4-fluoropyrrolidine-2-carboxamide] | < 1000 |
| CC1Oc2cccc(NC(=O)[C@@H]3C[C@@H](F)CN3C(=O)Cn3nc(C(N)=O)c4cc(-c5ccnnc5)ccc43)c2NC1=O (stereo partly drawn) [Compound 152, 1-(2-((2S,4R)-4-fluoro-2-(2-methyl-3-oxo-3,4-dihydro-2H-benzo[b][1,4]oxazin-5-ylcarbamoyl)pyrrolidin-1-yl)-2-oxoethyl)-5-(pyridazin-4-yl)-1H-indazole-3-carboxamide] | > 10000 |
| CC(=O)c1cn(CC(=O)N2C[C@H](F)C[C@H]2C(=O)Nc2nccc(Cl)n2)c2ccc(-c3ccnnc3)cc12 [Compound 180, (2S,4R)-1-(2-(3-acetyl-5-(pyridazin-4-yl)-1H-indol-1-yl)acetyl)-N-(4-chloropyrimidin-2-yl)-4-fluoropyrrolidine-2-carboxamide] | > 10000 |

same assay, conditions: Human Factor D assay of Example 8; Table 2; read-out: IC50

| Compound | IC50 [nM] |
| --- | --- |
| C=CCCCCCCCCCNc1ncc(-c2ccc3c(c2)c(C(C)=O)nn3CC(=O)N2C[C@H](F)C[C@H]2C(=O)NCc2cc(C=C)cc(Cl)c2F)cn1 [Compound 279, (2S,4R)-1-(2-(3-acetyl-5-(2-(undec-10-enylamino)pyrimidin-5-yl)-1H-indazol-1-yl)acetyl)-N-(3-chloro-2-fluoro-5-vinylbenzyl)-4-fluoropyrrolidine-2-carboxamide] | > 10000 |
| CC(=O)c1cn(CC(=O)N2C[C@H](F)C[C@H]2C(=O)Nc2cccc(Br)n2)c2ccc(-c3cnc(N)nc3)cc12 [Compound 219, (2S,4R)-1-(2-(3-acetyl-5-(2-aminopyrimidin-5-yl)-1H-indol-1-yl)acetyl)-N-(6-bromopyridin-2-yl)-4-fluoropyrrolidine-2-carboxamide] | < 1000 |
| Cc1ncc(-c2ccc3c(c2)c(C(N)=O)cn3CC(=O)N2C[C@H](F)C[C@H]2C(=O)Nc2cccc(Br)n2)cn1 [Compound 307, 1-(2-((2S,4R)-2-(6-bromopyridin-2-ylcarbamoyl)-4-fluoropyrrolidin-1-yl)-2-oxoethyl)-5-(2-methylpyrimidin-5-yl)-1H-indole-3-carboxamide] | < 1000 |
| CC(=O)c1nn(CC(=O)N2[C@@H]3C[C@@H]3C[C@H]2C(=O)NCc2cccc(Cl)c2F)c2ccc(-c3cnc4ccnn4c3)cc12 [Compound 240, (1R,3S,5R)-2-(2-(3-acetyl-5-(pyrazolo[1,5-a]pyrimidin-6-yl)-1H-indazol-1-yl)acetyl)-N-(3-chloro-2-fluorobenzyl)-2-azabicyclo[3.1.0] hexane-3-carboxamide] | < 1000 |
| CC(=O)c1nn(CC(=O)N2C[C@H](F)C[C@H]2C(=O)Nc2cccc(-c3ccccc3Cl)c2F)c2ccc(-c3cnc4cc(C)nn4c3)cc12 [Compound 296, (2S,4R)-1-(2-(3-acetyl-5-(2-methylpyrazolo[1,5-a]pyrimidin-6-yl)-1H-indazol-1-yl)acetyl)-N-(2′-chloro-2-fluorobiphenyl-3-yl)-4-fluoropyrrolidine-2-carboxamide] | < 1000 |
| COc1cc2c(cc1-c1cnc(C)nc1)c(C(C)=O)cn2CC(=O)N1C[C@H](F)C[C@H]1C(=O)Nc1cccc(-c2ccccc2Cl)c1F [Compound 318, (2S,4R)-1-(2-(3-Acetyl-6-methoxy-5-(2-methylpyrimidin-5-yl)-1H-indol-1-yl)acetyl)-N-(2′-chloro-2-fluoro-[1,1′-biphenyl]-3-yl)-4-fluoropyrrolidine-2-carboxamide] | < 1000 |
| CC(=O)c1nn(CC(=O)N2C[C@H](F)C[C@H]2C(=O)Nc2cccc(Br)n2)c2ccc(-c3cnc4nc(C)ccn34)cc12 [Compound 321, (2S,4R)-1-(2-(3-acetyl-5-(7-methylimidazo[1,2-a]pyrimidin-3-yl)-1H-indazol-1-yl)acetyl)-N-(6-bromopyridin-2-yl)-4-fluoropyrrolidine-2-carboxamide] | < 1000 |

same assay, conditions: Human Factor D, Table 3; read-out: IC50

| Compound | IC50 [nM] |
| --- | --- |
| CC(=O)c1ccc(Cl)c(-c2cccc(NC(=O)[C@@H]3C[C@H]4C[C@H]4N3C(=O)Cn3nc(C(N)=O)c4sc(-c5cnc(C)nc5)nc43)c2F)c1 [Compound 717, 1-(2-((1R,3S,5R)-3-(5′-Acetyl-2′-chloro-2-fluorobiphenyl-3-ylcarbamoyl)-2-azabicyclo[3.1.0]hexan-2-yl)-2-oxoethyl)-5-(2-methylpyrimidin-5-yl)-1H-pyrazolo[3,4-d]thiazole-3-carboxamide] | < 1000 |
| CCc1cc2ncc(-c3ccc4c(c3)c(C(C)=O)nn4CC(=O)N3C[C@H](F)C[C@H]3C(=O)Nc3cccc(Br)n3)cn2n1 [Compound 681, (2S,4R)-1-(2-(3-Acetyl-5-(2-ethylpyrazolo[1,5-a]pyrimidin-6-yl)-1H-indazol-1-yl)acetyl)-N-(6-bromopyridin-2-yl)-4-fluoropyrrolidine-2-carboxamide] | < 1000 |
| COC(=O)c1ccc(Br)nc1NC(=O)[C@@H]1C[C@@H](F)CN1C(=O)Cn1nc(C(C)=O)c2cc(-c3cnc(C)nc3)ccc21 [Compound 607, Methyl 2-((2S,4R)-1-(2-(3-Acetyl-5-(2-methylpyrimidin-5-yl)-1H-indazol-1-yl)acetyl)-4-fluoropyrrolidine-2-carboxamido)-6-bromonicotinate] | < 1000 |

same assay, conditions: Table 3; Human Factor D 80 nM, substrate Z-L-Lys-SBzl; read-out: IC50 (Stars)

| Compound | IC50 [nM] |
| --- | --- |
| CC(=O)O[C@H]1[C@@H](C(=O)Nc2cccc(Br)n2)N(C(=O)Cn2nc(C(C)=O)c3cc(-c4cnc(C)nc4)ccc32)C[C@@H]1F [Compound 452, (2S,3S,4S)-1-(2-(3-Acetyl-5-(2-methylpyrimidin-5-yl)-1H-indazol-1 yl)acetyl)-2-((6-bromopyridin-2-yl)carbamoyl)-4-fluoropyrrolidin-3-yl acetate] | < 1000 |
| CC(=O)c1nn(CC(=O)N2C[C@H](F)C[C@H]2C(=O)NCC(F)=C(C)C)c2ccc(-c3cnc(C)nc3)cc12 [Compound 474, (2S,4R)-1-(2-(3-acetyl-5-(2-methylpyrimidin-5-yl)-1H-indazol-1-yl)acetyl)-4-fluoro-N-(2-fluoro-3-methylbut-2-en-1-yl)pyrrolidine-2-carboxamide] | < 1000 |
| CO[C@@H]1CO[C@H]2[C@@H]1OC[C@H]2Oc1ncc(-c2ccc3c(c2)c(C(C)=O)cn3CC(=O)N2C[C@H](F)C[C@H]2C(=O)Nc2cccc(-c3ccccc3Cl)c2F)cn1 [Compound 335] | < 1000 |
| CC(=O)c1nn(CC(=O)N2C[C@H](F)C[C@H]2C(=O)Nc2cccc(-c3cc(S(N)(=O)=O)ccc3Cl)c2F)c2ccc(-c3cnc(C)nc3)cc12 [Compound 341, (2S,4R)-1-(2-(3-Acetyl-5-(2-methylpyrimidin-5-yl)-1H-indazol-1-yl)acetyl)-N-(2′-chloro-2-fluoro-5′-sulfamoyl-[1,1′-biphenyl]-3-yl)-4-fluoropyrrolidine-2-carboxamide] | < 1000 |
| Cc1cccc(NC(=O)[C@@H]2[C@H]3CC[C@H](C3)N2C(=O)Cn2cc(C(N)=O)c3cc(-c4ccc5ccccc5c4)ccc32)n1 [Compound 489, 1-(2-((1R,3S,4S)-3-((6-Methylpyridin-2-yl)carbamoyl)-2-azabicyclo[2.2.1]heptan-2-yl)-2-oxoethyl)-5-(naphthalen-2-yl)-1H-indole-3-carboxamide] | > 10000 |
| CC(=O)c1nn(CC(=O)N2C3CC3(CN)C[C@H]2C(=O)Nc2cccc(Br)n2)c2ccc(-c3cnc(C)nc3)cc12 (stereo partly drawn) [Compound 454, (3S)-2-(2-(3-Acetyl-5-(2-methylpyrimidin-5-yl)-1H-indazol-1-yl)acetyl)-5-(aminomethyl)-N-(6-bromopyridin-2-yl)-2-azabicyclo[3.1.0]hexane-3-carboxamide] | < 1000 |
| CC(=O)c1nn(CC(=O)N2C[C@H](F)C[C@H]2C(=O)Nc2cccc(Br)n2)c2ccc(-c3cnc(CC(=O)O)nc3)cc12 [Compound 533, 2-(5-(3-Acetyl-1-(2-((2S,4R)-2-((6-bromopyridin-2-yl)carbamoyl)-4-fluoropyrrolidin-1-yl)-2-oxoethyl)-1H-indazol-5-yl)pyrimidin-2-yl)acetic acid] | < 1000 |
